Assay results: patent publication US5405843A, “Quinoline derivatives” (Mitsui Toatsu Chemicals, Incorporated, priority 1988, dated 1995)

Tests used:
[1] = tested on: Vincristine-resistant strain P388/VCR cells of mouse leukemia P388 cells; assay: Potentiating effect on vincristine in mice having vincristine-resistant mouse leukemia (survival); type: in vivo, mouse (female CDFI mice); conditions: peritoneal, once a day for 5 days; for T/C (rate of life prolongation): control = 100
[2] = tested on: Adriamycin resistant strain K562/ADM cells of human myeloleukemia K562 cells; assay: Potentiating effect on activity of vincristine against adriamycin-resistant cells (growth inhibition); type: cell-based; conditions: ratio to control IC50 655
Text: Potentiating Effect of the Compounds on Activity of Anticancer Drugs

[3] = tested on: Adriamycin resistant strain 2780 AD cells of human ovarian cancer A2780 cells; assay: Potentiating effect on incorporation of 3H-vincristine into adriamycin-resistant cancer cells; type: cell-based; conditions: Homo sapiens, 2780AD, 2 h, 20 nM 3H-vincristine, control = 100, read-out: 3H-vincristine accumulation; for activity at 1 µg/mL: compound 1 μg/ml; for activity at 10 µg/mL: compound 10 μg/ml
How it was run: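 Cells at 1×10^6/ml were grown 24 h, then incubated 2 h at 37 °C in RPMI-1640 with 20 nM ^3H-vincristine, 5% FCS and compound (solution at 1.0 or 10.0 μg/ml). After washing and lysis in 0.2N NaOH, cellular ^3H-vincristine was counted by scintillation.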

[4] = tested on: drug-resistant cancer cells; conditions: calcium antagonists such as verapamil; cited from earlier work
[5] = compound 3 mg/kg + vincristine 100 ug/kg
[6] = compound 10 mg/kg + vincristine 100 ug/kg
[7] = compound 30 mg/kg + vincristine 100 ug/kg

Row | Compound | Average surviving period [1, 5] | T/C (rate of life prolongation) [1, 5] | Average surviving period [1, 6] | T/C (rate of life prolongation) [1, 6] | Average surviving period [1, 7] | T/C (rate of life prolongation) [1, 7] | effect in potentiating vincristine activity, multiples of the control ([2]; compound 0.3 μg/ml) | effect in potentiating vincristine activity, multiples of the control ([2]; compound 1 μg/ml) | effect in potentiating vincristine activity, multiples of the control ([2]; compound 3 μg/ml) | activity at 1 µg/mL [3] | activity at 10 µg/mL [3] | prevention of discharge of anticancer drugs from cancer cells [4]
1 | OC(COc1cccc2ncccc12)CN1CCN(C(c2ccccc2)c2ccccc2)CC1 (stereo not drawn) [Example 1, 5-[3-(4-Diphenylmethylpiperazine-1-yl)-2-hydroxypropoxy]quinoline] | 12.4 ± 0.2 days | 111% | 12.2 ± 0.4 days | 109% | 12.8 ± 0.4 days | 114% | 151.2 | 342.1 | 433.3 | 717% | 747% | 
2 | OC(COc1cccc2ncccc12)CN1CCN(C2c3ccccc3CCc3ccccc32)CC1 (stereo not drawn) [Example 2, 5-[3-(4-(Dibenzosuberane-5-yl)piperazine-1-yl)-2-hydroxypropoxy]quinoline] | 12.6 ± 0.2 days | 113% |  |  | 15.2 ± 0.7 days | 136% | 330.3 | 388.0 | 550.0 | 663% | 709% | 
3 | COc1ccc(CCN(C)CCCC(C#N)(c2ccc(OC)c(OC)c2)C(C)C)cc1OC (stereo not drawn) [verapamil] |  |  |  |  |  |  |  |  |  |  |  | prevent discharge of anticancer drugs from cancer cells
